Experiment [1] addresses Prothrombin (Homo sapiens, UniProt P00734). Description: Inhibition of Coagulation factor IIa.
Experiment [2] deals with Coagulation factor X (Homo sapiens, UniProt P00742). Description: Inhibition of Coagulation factor Xa.
The target of experiment [3] is Serine protease 1 (Homo sapiens, UniProt P07477). Description: In vitro inhibitory potency against Trypsin.
For experiment [4], the species on record is Homo sapiens. Description: Concentration at which compound inhibited coagulation of human plasma in vitro, doubling activated partial thromboplastin time (APTT). It is filed as functional, cell-free.
For experiment [5], the species on record is Rattus norvegicus. Description: Concentration at which compound inhibited coagulation of rat plasma in vitro, doubling activated partial thromboplastin time (APTT). It is filed as functional, cell-free.
A short description of experiment [6]: Selectivity ratio as Ki of Activated protein C / Ki of factor Xa.
A short description of experiment [7]: Selectivity ratio as Ki of Serine proteases tissue plasminogen activator / Ki of factor Xa.
The nature of experiment [8]: Selectivity ratio as Ki of Trypsin / Ki of factor Xa.
Experiment [9] concerns the target Thrombin and coagulation factor X (Homo sapiens) (UniProt P00734+P00742). Description: Selectivity ratio as Ki of factor IIA / Ki of factor Xa. It is filed as protein assay.
The species entered for experiment [10] is Rattus norvegicus. The experiment can be described thus: Tested for maximal effective dose in ferrous-chloride induced arterial thrombosis by bolus infusion. It is filed as functional. The note with it: read-out: MED.
Experiment [11] concerns Rattus norvegicus. Description: Tested for maximal effective dose in ferrous-chloride induced arterial thrombosis by intravenous maintenance infusion. It is filed as functional.

pKi: −log10 of the molar value.

Coagulation factor X, sequence (P00742 41-179 limits assumed): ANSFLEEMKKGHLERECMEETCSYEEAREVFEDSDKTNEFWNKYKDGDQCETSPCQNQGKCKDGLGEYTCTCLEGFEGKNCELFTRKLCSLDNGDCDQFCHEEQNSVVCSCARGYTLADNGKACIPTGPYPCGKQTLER
Coagulation factor X, sequence (P00742 235-488 limits assumed): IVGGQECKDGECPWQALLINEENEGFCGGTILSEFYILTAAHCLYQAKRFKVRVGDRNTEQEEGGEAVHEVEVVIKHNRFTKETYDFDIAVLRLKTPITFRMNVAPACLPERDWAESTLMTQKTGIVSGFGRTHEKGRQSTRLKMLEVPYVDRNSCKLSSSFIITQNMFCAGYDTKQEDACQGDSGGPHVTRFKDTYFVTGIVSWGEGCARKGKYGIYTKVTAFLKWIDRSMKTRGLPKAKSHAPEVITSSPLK
Serine protease 1, sequence (P07477 whole entry): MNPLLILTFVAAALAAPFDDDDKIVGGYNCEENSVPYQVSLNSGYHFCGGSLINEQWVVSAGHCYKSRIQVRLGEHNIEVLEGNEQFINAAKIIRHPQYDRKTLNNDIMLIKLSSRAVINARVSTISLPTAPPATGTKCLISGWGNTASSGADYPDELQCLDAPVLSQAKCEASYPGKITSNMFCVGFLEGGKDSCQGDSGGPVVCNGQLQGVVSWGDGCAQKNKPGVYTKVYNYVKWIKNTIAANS
Thrombin and coagulation factor X (Homo sapiens), sequence (P00742 whole entry, looked up, other chains not shown, the tested form may be a part): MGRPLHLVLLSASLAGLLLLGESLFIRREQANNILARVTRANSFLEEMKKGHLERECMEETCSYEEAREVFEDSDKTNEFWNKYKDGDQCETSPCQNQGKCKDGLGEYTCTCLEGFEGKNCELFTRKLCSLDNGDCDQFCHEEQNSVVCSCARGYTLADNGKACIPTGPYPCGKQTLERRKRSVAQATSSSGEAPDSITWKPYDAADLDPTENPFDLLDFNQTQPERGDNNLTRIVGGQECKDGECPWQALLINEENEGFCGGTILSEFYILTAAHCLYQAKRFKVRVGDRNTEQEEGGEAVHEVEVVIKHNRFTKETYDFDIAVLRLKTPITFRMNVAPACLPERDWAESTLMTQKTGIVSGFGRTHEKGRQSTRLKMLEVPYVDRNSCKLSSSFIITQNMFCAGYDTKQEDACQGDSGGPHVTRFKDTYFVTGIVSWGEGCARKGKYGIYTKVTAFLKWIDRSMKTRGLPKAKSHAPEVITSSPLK

On to `COC(=O)[C@H](Cc1cccc(C(=N)N)c1)[C@@H](C)NC(=O)c1ccc(-c2ccncc2)cc1`, for which the pKi – broadly, −log10 of the Ki, conventionally taken in molar units – was below 5.40 in experiment [1], 9.30 in experiment [2] and 7.12 in experiment [3].

As to `COC(=O)[C@H](Cc1cccc(C(=N)N)c1)[C@@H](C)NC(=O)c1ccc(-c2ncc[nH]2)cc1`, the pKi in [1] was below 5.40; in [2] it was 7.34; in [3], 6.31.

Regarding `COC(=O)[C@H](Cc1cccc(C(=N)N)c1)[C@@H](C)NC(=O)c1ccc(-c2cc[n+](C)cc2)cc1`, the figures for the pKi in experiment [1], in [2] and in experiment [3] were below 5.40, 8.57 and 6.77, respectively.

On to `COC(=O)[C@H](Cc1cccc(C(=N)N)c1)[C@@H](C)NC(=O)c1ccc(-c2c[nH]cn2)cc1`, for which the values for the pKi in experiment [1], in [2] and in experiment [3] were below 5.40, 8.52 and 6.77, respectively.

`COC(=O)[C@H](Cc1cccc(C(=N)N)c1)[C@@H](C)NC(=O)c1ccc(-c2cccnc2)cc1`: the pKi in [1] was 5.40; in experiment [2], 8.10; in experiment [3], 6.43.

With `COC(=O)[C@H](Cc1cccc(C(=N)N)c1)[C@@H](C)NC(=O)c1ccc(-n2ccnc2)cc1`, the pKi is below 5.40 in [1], 8.22 in experiment [2] and below 5.54 in experiment [3].

In the case of `COC(=O)[C@H](Cc1cccc(C(=N)N)c1)[C@@H](C)NC(=O)c1ccc(-c2ccc[n+]([O-])c2)cc1`, the pKi in experiment [1] was below 5.40; in experiment [2], 8.70; in experiment [3] it was 6.89.

For `COC(=O)[C@H](Cc1cccc(C(=N)N)c1)[C@@H](C)NC(=O)c1ccc(-c2ccc[n+](C)c2)cc1`, the pKi in experiment [1] was below 5.40; in [2], 9.10; in [3] it was 7.28.

The compound `COC(=O)[C@H](Cc1cccc(C(=N)N)c1)[C@@H](C)NC(=O)c1ccc(-c2ccccc2)cc1` gave a pKi in [1] of 5.49. For the same compound, the Concentration in experiment [4] was determined as 3.9 µM; in [5] it was 5.1 µM. For the same compound, the Ratio in [6] is above 1000; in experiment [7] it was above 1000; in [8], 13; in [9], 610.

Turning to `COC(=O)[C@H](Cc1cccc(C(=N)N)c1)[C@@H](C)NC(=O)c1ccc(-c2cccc[n+]2C)cc1`, the pKi in [1] is below 5.40; in experiment [2], 8.92; in [3], 7.44.

Take `COC(=O)[C@H](Cc1cccc(C(=N)N)c1)[C@@H](C)NC(=O)c1ccc(-c2cc[n+]([O-])cc2)cc1` [OTAMIXABAN]: the figures for the negative-log Ki (pKi) in experiment [1] and in experiment [3] were below 5.40 and 6.52, respectively. Also, the Concentration was found to be 0.41 µM in experiment [4] and 0.8 µM in [5]. The minimal effective dose in experiment [10] was 0.05 mg/kg. The compound further gave an MED in [11] of 5 µg/min/kg. Further, the Ratio in [6] is above 10000; in experiment [7], above 10000; in experiment [8], 750; in [9], above 10000.

As for `COC(=O)[C@H](Cc1cccc(C(=N)N)c1)[C@@H](C)NC(=O)c1ccc(-c2ccccn2)cc1`, the pKi was 5.55 in [1], 9.05 in experiment [2] and 7.29 in [3].

For the compound `COC(=O)[C@H](Cc1cccc(C(=N)N)c1)[C@@H](C)NC(=O)c1ccc(-c2cccc[n+]2[O-])cc1`, the pKi in experiment [1] is below 5.40; in experiment [2] it was 9.24; in [3], 7.44.
